Measured values published in ChEMBL document CHEMBL1154454, “Tetrahydronaphthyl azole oxime ethers: the conformationally rigid analogues of oxiconazole as antibacterials” (2009).
In brackets after ≈: the same amount, converted by molar mass.

Columns and labels:
Cryptococcus neoformans = experiment: Antimicrobial activity against Cryptococcus neoformans after 72 hrs by standard microbroth dilution assay; format: functional
Aspergillus fumigatus = experiment: Antimicrobial activity against Aspergillus fumigatus after 72 hrs by standard microbroth dilution assay; format: functional
Klebsiella pneumoniae [1] = experiment: microbe, parasite or virus in culture; format: functional; conditions: ATCC 27736, 24 h
Description: (§1) Antimicrobial activity against Klebsiella pneumoniae ATCC 27736 after 24 hrs by standard microbroth dilution assay

Sporothrix schenckii = experiment: Antimicrobial activity against Sporothrix schenckii after 72 hrs by standard microbroth dilution assay; format: functional
[2] = tested on: Trichophyton mentagrophytes; experiment: Antimicrobial activity against Trichophyton mentagrophytes after 96 hrs by standard microbroth dilution assay; format: functional
Pseudomonas aeruginosa [3] = experiment: Antimicrobial activity against Pseudomonas aeruginosa ATCC BAA427 after 24 hrs by standard microbroth dilution assay; format: functional
Candida albicans = experiment: Antimicrobial activity against Candida albicans after 48 hrs by standard microbroth dilution assay; format: functional
Staphylococcus aureus [4] = experiment: microbe, parasite or virus in culture; format: functional; conditions: ATCC 25923, 24 h
Description: (§2) Antimicrobial activity against Staphylococcus aureus ATCC 25923 after 24 hrs by standard microbroth dilution assay

Escherichia coli [5] = experiment: microbe, parasite or virus in culture; format: functional; conditions: ATCC 9637, 24 h
Description: (§3) Antimicrobial activity against Escherichia coli ATCC 9637 after 24 hrs by standard microbroth dilution assay

Candida parapsilosis = experiment: Antimicrobial activity against Candida parapsilosis after 48 hrs by standard microbroth dilution assay; format: functional; conditions: Lodderomyces parapsilosis
Staphylococcus aureus [6] = conditions: ATCC 25923
Description: as §2

Klebsiella pneumoniae [7] = conditions: ATCC 27736
Description: as §1

Pseudomonas aeruginosa [8] = tested on: Pseudomonas aeruginosa
Escherichia coli [9] = conditions: ATCC 9637
Description: as §3

Row | Compound | MIC (Cryptococcus neoformans) | MIC (Aspergillus fumigatus) | MIC (Klebsiella pneumoniae [1]) | MIC (Sporothrix schenckii) | MIC [2] | MIC (Pseudomonas aeruginosa [3]) | MIC (Candida albicans) | MIC (Staphylococcus aureus [4]) | MIC (Escherichia coli [5]) | MIC (Candida parapsilosis) | MIC (Staphylococcus aureus [6]) | MIC (Klebsiella pneumoniae [7]) | MIC (Pseudomonas aeruginosa [8]) | MIC (Escherichia coli [9])
1 | c1ccc(CO/N=C2\c3ccccc3CCC2Cn2ccnc2)cc1 (stereo not given) | > 50 µg/mL | 50 µg/mL (≈ 151 µM) | 6.25 µg/mL (≈ 18.9 µM) | > 50 µg/mL | > 50 µg/mL | > 50 µg/mL | > 50 µg/mL | 6.25 µg/mL (≈ 18.9 µM) | 0.781 µg/mL (≈ 2.36 µM) | > 50 µg/mL |  |  |  | 
2 | Clc1cccc(CO/N=C2\c3ccccc3CCC2Cn2ccnc2)c1 (stereo not given) | > 50 µg/mL | 25 µg/mL (≈ 68.3 µM) | 3.12 µg/mL (≈ 8.54 µM) | > 50 µg/mL | > 50 µg/mL | > 50 µg/mL | > 50 µg/mL | 1.56 µg/mL (≈ 4.27 µM) | 0.391 µg/mL (≈ 1.07 µM) | > 50 µg/mL |  |  |  | 
3 | Fc1cccc2c1CCC(Cn1ccnc1)/C2=N/OCc1cccc(Cl)c1 (stereo not given) | > 50 µg/mL | > 50 µg/mL | 1.56 µg/mL (≈ 4.07 µM) | > 50 µg/mL | > 50 µg/mL | > 50 µg/mL | > 50 µg/mL | 0.781 µg/mL (≈ 2.03 µM) | 0.391 µg/mL (≈ 1.02 µM) | > 50 µg/mL |  |  |  | 
4 | Clc1ccc(CO/N=C(\Cn2ccnc2)c2ccc(Cl)cc2Cl)c(Cl)c1 [OXICONAZOLE] | 0.01 µg/mL (≈ 0.0233 µM) | 6.25 µg/mL (≈ 14.6 µM) | > 50 µg/mL | 3.12 µg/mL (≈ 7.27 µM) | 6.25 µg/mL (≈ 14.6 µM) | > 50 µg/mL | 12.5 µg/mL (≈ 29.1 µM) | 6.25 µg/mL (≈ 14.6 µM) | > 50 µg/mL | 3.12 µg/mL (≈ 7.27 µM) |  |  |  | 
5 | Cc1cccc2c1CCC(Cn1cncn1)/C2=N/OCc1cccc(Cl)c1 (stereo not given) | > 50 µg/mL | > 50 µg/mL | > 50 µg/mL | > 50 µg/mL | > 50 µg/mL | > 50 µg/mL | > 50 µg/mL | 6.25 µg/mL (≈ 16.4 µM) | 6.25 µg/mL (≈ 16.4 µM) | > 50 µg/mL |  |  |  | 
6 | Brc1cccc2c1CCC(Cn1ccnc1)/C2=N/OCc1ccccc1 (stereo not given) | > 50 µg/mL | 50 µg/mL (≈ 122 µM) | 3.12 µg/mL (≈ 7.62 µM) | > 50 µg/mL | > 50 µg/mL | > 50 µg/mL | > 50 µg/mL | 1.56 µg/mL (≈ 3.81 µM) | 0.391 µg/mL (≈ 0.953 µM) | > 50 µg/mL |  |  |  | 
7 | Fc1cccc2c1CCC(Cn1ccnc1)/C2=N/OCc1ccccc1 (stereo not given) | > 50 µg/mL | > 50 µg/mL | 6.25 µg/mL (≈ 17.9 µM) | > 50 µg/mL | > 50 µg/mL | > 50 µg/mL | > 50 µg/mL | 3.12 µg/mL (≈ 8.94 µM) | 0.781 µg/mL (≈ 2.24 µM) | > 50 µg/mL |  |  |  | 
8 | Fc1cccc2c1CCC(Cn1cncn1)/C2=N/OCc1ccccc1 (stereo not given) | > 50 µg/mL | > 50 µg/mL | > 50 µg/mL | > 50 µg/mL | > 50 µg/mL | > 50 µg/mL | > 50 µg/mL | > 50 µg/mL | 25 µg/mL (≈ 71.3 µM) | > 50 µg/mL |  |  |  | 
9 | GENTAMICIN |  |  |  |  |  |  |  |  |  |  | 6.25 µg/mL | 0.78 µg/mL | 25 µg/mL | 0.18 µg/mL
10 | Clc1cccc2c1CCC(Cn1ccnc1)/C2=N/OCc1ccccc1 (stereo not given) | > 50 µg/mL | 25 µg/mL (≈ 68.3 µM) | 6.25 µg/mL (≈ 17.1 µM) | > 50 µg/mL | > 50 µg/mL | > 50 µg/mL | > 50 µg/mL | 1.56 µg/mL (≈ 4.27 µM) | 0.391 µg/mL (≈ 1.07 µM) | > 50 µg/mL |  |  |  | 
11 | Fc1cccc2c1CCC(Cn1cncn1)/C2=N/OCc1cccc(Cl)c1 (stereo not given) | > 50 µg/mL | > 50 µg/mL | > 50 µg/mL | > 50 µg/mL | > 50 µg/mL | > 50 µg/mL | > 50 µg/mL | > 50 µg/mL | 50 µg/mL (≈ 130 µM) | > 50 µg/mL |  |  |  | 
12 | Clc1cccc2c1CCC(Cn1cncn1)/C2=N/OCc1ccccc1 (stereo not given) | > 50 µg/mL | > 50 µg/mL | > 50 µg/mL | > 50 µg/mL | > 50 µg/mL | > 50 µg/mL | > 50 µg/mL | > 50 µg/mL | 25 µg/mL (≈ 68.1 µM) | > 50 µg/mL |  |  |  | 
13 | c1ccc(CO/N=C2\c3ccccc3CCC2Cn2cncn2)cc1 (stereo not given) | > 50 µg/mL | > 50 µg/mL | > 50 µg/mL | > 50 µg/mL | > 50 µg/mL | > 50 µg/mL | > 50 µg/mL | > 50 µg/mL | 25 µg/mL (≈ 75.2 µM) | > 50 µg/mL |  |  |  | 
14 | Cc1cccc2c1CCC(Cn1ccnc1)/C2=N/OCc1cccc(Cl)c1 (stereo not given) | > 50 µg/mL | 50 µg/mL (≈ 132 µM) | 1.56 µg/mL (≈ 4.11 µM) | > 50 µg/mL | > 50 µg/mL | > 50 µg/mL | > 50 µg/mL | 0.781 µg/mL (≈ 2.06 µM) | 0.391 µg/mL (≈ 1.03 µM) | > 50 µg/mL |  |  |  | 
15 | Clc1cccc(CO/N=C2\c3cccc(Cl)c3CCC2Cn2cncn2)c1 (stereo not given) | > 50 µg/mL | > 50 µg/mL | > 50 µg/mL | > 50 µg/mL | > 50 µg/mL | > 50 µg/mL | > 50 µg/mL | > 50 µg/mL | 6.25 µg/mL (≈ 15.6 µM) | > 50 µg/mL |  |  |  | 
16 | Clc1cccc(CO/N=C2\c3cccc(Br)c3CCC2Cn2ccnc2)c1 (stereo not given) | > 50 µg/mL | > 50 µg/mL | 1.56 µg/mL (≈ 3.51 µM) | > 50 µg/mL | > 50 µg/mL | > 50 µg/mL | > 50 µg/mL | 0.781 µg/mL (≈ 1.76 µM) | 0.391 µg/mL (≈ 0.879 µM) | 50 µg/mL (≈ 112 µM) |  |  |  | 
17 | Clc1cccc2c1CCC(Cn1ccnc1)/C2=N\OCc1ccccc1 (stereo not given) | > 50 µg/mL | > 50 µg/mL | > 50 µg/mL | 50 µg/mL (≈ 137 µM) | 12.5 µg/mL (≈ 34.2 µM) | > 50 µg/mL | 50 µg/mL (≈ 137 µM) | 3.12 µg/mL (≈ 8.54 µM) | > 50 µg/mL | > 50 µg/mL |  |  |  | 
18 | Clc1cccc(CO/N=C2\c3ccccc3CCC2Cn2cncn2)c1 (stereo not given) | > 50 µg/mL | > 50 µg/mL | > 50 µg/mL | > 50 µg/mL | > 50 µg/mL | > 50 µg/mL | > 50 µg/mL | 12.2 µg/mL (≈ 33.4 µM) | 12.2 µg/mL (≈ 33.4 µM) | > 50 µg/mL |  |  |  | 
19 | OC(Cn1cncn1)(Cn1cncn1)c1ccc(F)cc1F [FLUCONAZOLE] | 1 µg/mL (≈ 3.27 µM) | 2 µg/mL (≈ 6.53 µM) |  | 2 µg/mL (≈ 6.53 µM) | 1 µg/mL (≈ 3.27 µM) |  | 0.5 µg/mL (≈ 1.63 µM) |  |  | 1 µg/mL (≈ 3.27 µM) |  |  |  | 
20 | Brc1cccc2c1CCC(Cn1cncn1)/C2=N/OCc1ccccc1 (stereo not given) | > 50 µg/mL | > 50 µg/mL | > 50 µg/mL | > 50 µg/mL | > 50 µg/mL | > 50 µg/mL | > 50 µg/mL | 12.5 µg/mL (≈ 30.4 µM) | 6.25 µg/mL (≈ 15.2 µM) | > 50 µg/mL |  |  |  | 
21 | Clc1cccc(CO/N=C2/c3ccccc3CCC2Cn2ccnc2)c1 (stereo not given) | > 50 µg/mL | > 50 µg/mL | > 50 µg/mL | > 50 µg/mL | 25 µg/mL (≈ 68.3 µM) | > 50 µg/mL | > 50 µg/mL | 6.25 µg/mL (≈ 17.1 µM) | > 50 µg/mL | > 50 µg/mL |  |  |  | 
22 | Clc1cccc(CO/N=C2/c3cccc(Br)c3CCC2Cn2ccnc2)c1 (stereo not given) | > 50 µg/mL | > 50 µg/mL | > 50 µg/mL | 50 µg/mL (≈ 112 µM) | 12.5 µg/mL (≈ 28.1 µM) | > 50 µg/mL | 50 µg/mL (≈ 112 µM) | 1.56 µg/mL (≈ 3.51 µM) | > 50 µg/mL | > 50 µg/mL |  |  |  | 
23 | Cc1cccc2c1CCC(Cn1ccnc1)/C2=N/OCc1ccccc1 (stereo not given) | > 50 µg/mL | > 50 µg/mL | 6.25 µg/mL (≈ 18.1 µM) | > 50 µg/mL | > 50 µg/mL | > 50 µg/mL | > 50 µg/mL | 1.56 µg/mL (≈ 4.52 µM) | 0.781 µg/mL (≈ 2.26 µM) | > 50 µg/mL |  |  |  | 
24 | Cc1cccc2c1CCC(Cn1cncn1)/C2=N/OCc1ccccc1 (stereo not given) | > 50 µg/mL | > 50 µg/mL | > 50 µg/mL | > 50 µg/mL | > 50 µg/mL | > 50 µg/mL | > 50 µg/mL | > 50 µg/mL | 25 µg/mL (≈ 72.2 µM) | > 50 µg/mL |  |  |  | 
25 | Clc1cccc(CO/N=C2\c3cccc(Br)c3CCC2Cn2cncn2)c1 (stereo not given) | > 50 µg/mL | > 50 µg/mL | > 50 µg/mL | > 50 µg/mL | > 50 µg/mL | > 50 µg/mL | > 50 µg/mL | 6.25 µg/mL (≈ 14 µM) | 3.12 µg/mL (≈ 7.01 µM) | > 50 µg/mL |  |  |  | 
